According to ChEMBL document CHEMBL3091348, “Discovery of an intravenous hepatoselective glucokinase activator for the treatment of inpatient hyperglycemia” (Bioorg Med Chem Lett, 2013):
≈ marks a conversion by molar mass, not a printed value.

How the values were obtained:
[1] = Organic anion transporter-mediated drug uptake in rat hepatocytes assessed as total uptake; format: ADME, cell-based, Hepatocyte
[2] = Organic anion transporter-mediated drug uptake in rat hepatocytes assessed as passive uptake; format: ADME, cell-based, Hepatocyte
[3] = Organic anion transporter-mediated drug uptake in rat hepatocytes assessed as active uptake; format: ADME, cell-based, Hepatocyte
[4] = AUC (0 to 24 hrs) in rat at 5 mg/kg, po; format: ADME, organism-based; parameters: time < 24 hr, dose 5 mg/kg, route oral; settings: plasma
Rattus norvegicus [5] = assay: Antihyperglycemic activity in rat assessed as liver to plasma AUC ratio at 5 mg/kg, iv administered as bolus after 1 to 6 hrs; format: functional
[6] = Aqueous kinetic solubility of the compound at pH 6.5; format: physicochemical; settings: read-out: Kinetic_solubility
[7] = AUC (0 to 24 hrs) in rat at 1 mg/kg, iv; format: ADME, organism-based; parameters: time < 24 hr, dose 1 mg/kg, route intravenous; settings: plasma
[8] = Clearance in dog at 1 mg/kg, iv; format: ADME, organism-based, Canis lupus familiaris; parameters: dose 1 mg/kg, route intravenous; settings: in vivo
Hexokinase-4 [9] = target: T1, Hexokinase-4 (Rattus norvegicus, UniProt P17712); assay: Activation of glucokinase in Wistar rat hepatocytes assessed as nuclear to cytosolic translocation of protein by immunofluorescence assay; format: cell-based, Hepatocyte
T1 sequence (P17712 whole entry): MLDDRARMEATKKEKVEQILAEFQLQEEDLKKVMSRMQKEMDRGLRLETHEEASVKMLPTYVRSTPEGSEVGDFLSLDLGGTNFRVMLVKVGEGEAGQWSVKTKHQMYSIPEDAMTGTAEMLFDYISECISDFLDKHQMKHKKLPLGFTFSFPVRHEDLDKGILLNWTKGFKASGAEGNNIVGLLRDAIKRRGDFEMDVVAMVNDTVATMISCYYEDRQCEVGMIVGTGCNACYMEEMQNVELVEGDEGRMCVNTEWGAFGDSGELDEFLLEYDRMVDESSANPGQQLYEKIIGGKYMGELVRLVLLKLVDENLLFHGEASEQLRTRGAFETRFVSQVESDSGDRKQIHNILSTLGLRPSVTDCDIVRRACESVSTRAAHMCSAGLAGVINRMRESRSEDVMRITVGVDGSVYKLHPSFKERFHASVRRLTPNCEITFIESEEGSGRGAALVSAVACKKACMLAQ

[10] = AUC (0 to 24 hrs) in dog at 1 mg/kg, iv; format: ADME, organism-based, Canis lupus familiaris; parameters: time < 24 hr, dose 1 mg/kg, route intravenous; settings: plasma
[11] = Lipophilicity, log D of the compound at pH 7.4; format: physicochemical; settings: buffer
[12] = Apparent permeability in RRCK cells at pH 5.5; format: ADME, cell-based, Canis lupus familiaris, MDCKII-LE; settings: dog, MDCK
[13] = Cmax in dog at 1 mg/kg, iv; format: ADME, organism-based, Canis lupus familiaris; parameters: dose 1 mg/kg, route intravenous; settings: in vivo
OATP1B1 = target: T2, OATP1B1 (Homo sapiens, UniProt Q9Y6L6); assay: Activity at OATP1B1 (unknown origin) transfected in HEK cells assessed as transporter-mediated cellular uptake relative to mock-transfected HEK cells; format: ADME, cell-based; settings: HEK293 cells transfected with OATP1B1, read-out: FC
T2 sequence (Q9Y6L6 whole entry): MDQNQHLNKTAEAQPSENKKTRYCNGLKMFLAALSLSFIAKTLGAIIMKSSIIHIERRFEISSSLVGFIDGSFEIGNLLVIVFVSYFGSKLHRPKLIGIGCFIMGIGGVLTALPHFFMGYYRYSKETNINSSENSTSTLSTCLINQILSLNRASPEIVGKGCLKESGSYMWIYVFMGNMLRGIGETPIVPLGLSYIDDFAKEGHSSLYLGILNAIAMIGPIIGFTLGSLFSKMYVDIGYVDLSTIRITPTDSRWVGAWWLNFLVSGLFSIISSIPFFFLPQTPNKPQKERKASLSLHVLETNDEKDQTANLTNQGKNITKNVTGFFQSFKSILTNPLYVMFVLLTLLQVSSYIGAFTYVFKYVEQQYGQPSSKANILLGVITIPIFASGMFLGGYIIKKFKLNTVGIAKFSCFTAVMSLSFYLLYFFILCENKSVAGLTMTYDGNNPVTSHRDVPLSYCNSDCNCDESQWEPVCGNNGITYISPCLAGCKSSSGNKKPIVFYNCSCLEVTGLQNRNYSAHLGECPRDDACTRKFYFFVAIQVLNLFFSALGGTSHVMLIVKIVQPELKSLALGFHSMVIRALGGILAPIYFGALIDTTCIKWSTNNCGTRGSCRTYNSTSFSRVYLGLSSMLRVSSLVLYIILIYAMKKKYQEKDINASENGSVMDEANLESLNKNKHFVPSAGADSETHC

OATP1B3 = target: T3, OATP1B3 (Homo sapiens, UniProt Q9NPD5); assay: Activity at OATP1B3 (unknown origin) transfected in HEK cells assessed as transporter-mediated cellular uptake relative to mock-transfected HEK cells; format: ADME, cell-based; settings: HEK293 cells transfected with OATP1B3, read-out: FC
T3 sequence (Q9NPD5 whole entry): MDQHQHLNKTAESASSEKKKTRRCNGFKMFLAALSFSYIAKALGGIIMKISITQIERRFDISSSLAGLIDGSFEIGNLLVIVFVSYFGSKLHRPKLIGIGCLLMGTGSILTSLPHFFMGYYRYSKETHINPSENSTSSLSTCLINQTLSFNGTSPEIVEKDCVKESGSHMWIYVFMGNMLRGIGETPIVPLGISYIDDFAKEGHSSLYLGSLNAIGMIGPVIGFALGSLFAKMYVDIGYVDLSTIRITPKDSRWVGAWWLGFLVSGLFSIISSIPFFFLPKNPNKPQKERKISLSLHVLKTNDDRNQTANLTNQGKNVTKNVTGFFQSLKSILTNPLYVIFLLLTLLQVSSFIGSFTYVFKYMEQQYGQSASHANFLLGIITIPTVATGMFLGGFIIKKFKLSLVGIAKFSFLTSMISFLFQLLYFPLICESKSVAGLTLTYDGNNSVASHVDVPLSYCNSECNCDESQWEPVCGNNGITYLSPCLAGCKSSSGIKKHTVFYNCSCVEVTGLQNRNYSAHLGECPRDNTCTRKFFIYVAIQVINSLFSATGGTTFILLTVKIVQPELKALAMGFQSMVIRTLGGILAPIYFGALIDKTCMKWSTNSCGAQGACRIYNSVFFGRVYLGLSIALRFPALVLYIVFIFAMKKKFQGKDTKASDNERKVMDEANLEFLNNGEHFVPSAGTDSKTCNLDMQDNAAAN

[14] = Apparent permeability in RRCK cells at pH 6.5; format: ADME, cell-based, Canis lupus familiaris, MDCKII-LE; settings: dog, MDCK
[15] = Cmax in dog at 5 mg/kg, po; format: ADME, organism-based, Canis lupus familiaris; parameters: dose 5 mg/kg, route oral; settings: in vivo
[16] = Half life in dog at 1 mg/kg, iv; format: ADME, organism-based, Canis lupus familiaris; parameters: dose 1 mg/kg, route intravenous; settings: in vivo
[17] = Intrinsic clearance in human liver microsomes; format: ADME; settings: read-out: CLH
[18] = Volume of distribution at steady state in rat at 1 mg/kg, iv; format: ADME, organism-based; parameters: dose 1 mg/kg, route intravenous; settings: in vivo, read-out: Vdss
[19] = Oral bioavailability in rat at 5 mg/kg; format: ADME, organism-based; settings: in vivo
[20] = Apparent permeability across RRCK cells; format: ADME, cell-based, Canis lupus familiaris, MDCKII-LE; settings: dog, MDCK
[21] = AUC (0 to 24 hrs) in dog at 5 mg/kg, po; format: ADME, organism-based, Canis lupus familiaris; parameters: time < 24 hr, dose 5 mg/kg, route oral; settings: plasma
[22] = Cmax in rat at 5 mg/kg, po; format: ADME, organism-based; parameters: dose 5 mg/kg, route oral; settings: in vivo
Rattus norvegicus [23] = assay: Antidiabetic activity in Goto-Kakizaki rat diabetic model assessed as reduction in glucose excursion AUC at 24 mg/kg, iv administered as infusion for 4 hrs measured after 2 hrs by oral glucose tolerance test relative to control; format: functional; parameters: scale not given: the % may be the effect or the level left
Rattus norvegicus [24] = assay: Antihyperglycemic activity in rat assessed as liver to plasma AUC ratio at EC50 dose, iv administered as infusion up to 4 days; format: functional
[25] = Cmax in rat at 1 mg/kg, iv; format: ADME, organism-based; parameters: dose 1 mg/kg, route intravenous; settings: in vivo
[26] = Clearance in rat at 1 mg/kg, iv; format: ADME, organism-based; parameters: dose 1 mg/kg, route intravenous; settings: in vivo
[27] = Half life in rat at 1 mg/kg, iv; format: ADME, organism-based; parameters: dose 1 mg/kg, route intravenous; settings: in vivo
[28] = Oral bioavailability in dog at 5 mg/kg; format: ADME, organism-based, Canis lupus familiaris; settings: in vivo
[29] = Volume of distribution at steady state in dog at 1 mg/kg, iv; format: ADME, organism-based, Canis lupus familiaris; parameters: dose 1 mg/kg, route intravenous; settings: in vivo, read-out: Vdss
Hexokinase-4 [30] = target: T4, Hexokinase-4 (Homo sapiens, UniProt P35557); assay: Activation of recombinant human glucokinase by G6PDH/NADP coupled assay
T4 sequence (P35557 whole entry): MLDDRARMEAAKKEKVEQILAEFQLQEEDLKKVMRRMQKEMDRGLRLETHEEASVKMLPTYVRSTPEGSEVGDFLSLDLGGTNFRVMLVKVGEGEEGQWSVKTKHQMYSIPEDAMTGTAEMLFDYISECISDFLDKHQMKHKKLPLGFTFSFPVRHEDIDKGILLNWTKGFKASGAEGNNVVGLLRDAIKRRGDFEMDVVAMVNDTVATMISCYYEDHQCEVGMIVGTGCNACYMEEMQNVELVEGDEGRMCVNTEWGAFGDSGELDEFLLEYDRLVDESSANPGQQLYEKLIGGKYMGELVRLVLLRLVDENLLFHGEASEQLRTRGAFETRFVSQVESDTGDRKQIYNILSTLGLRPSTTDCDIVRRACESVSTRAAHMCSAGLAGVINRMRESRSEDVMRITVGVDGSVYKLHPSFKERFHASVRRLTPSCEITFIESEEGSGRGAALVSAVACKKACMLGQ

[31] = Apparent permeability in RRCK cells at pH 7.4; format: ADME, cell-based, Canis lupus familiaris, MDCKII-LE; settings: dog, MDCK
Hexokinase-4 [32] = target: T1, Hexokinase-4; assay: Activation of glucokinase in rat INS-1 cells assessed as glucose-stimulated insulin secretion; format: cell-based, INS1
[33] = target: T5, Hexokinase-4 (Homo sapiens) (UniProt P35557); assay: Activation of recombinant human glucokinase assessed as decrease in enzyme Km for glucose by G6PDH/NADP coupled assay relative to control
T5 sequence (whole entry): T4 sequence (P35557 whole entry)

[34] = target: T5, Hexokinase-4 (Homo sapiens); assay: Activation of recombinant human glucokinase assessed as increase in enzyme Vmax for glucose by G6PDH/NADP coupled assay relative to control

CC(C)c1nc(N(C)S(C)(=O)=O)nc(-c2ccc(F)cc2)c1/C=C/[C@@H](O)C[C@@H](O)CC(=O)O [ROSUVASTATIN]
Drug uptake [1]: 158 µL/min/mg | Drug uptake [2]: 5.8 µL/min/mg | Drug uptake [3]: 91%

O=C(O)c1ccc(NC(=O)[C@H](CC2CCCC2)n2cnc(S(=O)(=O)C3CCC3)c2)nc1
AUC(0-t) at 24 h [4]: 3.4 ng·h/mL | Ratio AUC (Rattus norvegicus [5]): 2 | solubility kinetic [6]: 428 µM (≈ 191 µg/mL) | AUC(0-t) at 24 h [7]: 176 ng·h/mL | clearance [8]: 18 mL/min/kg | IC50 (Hexokinase-4 [9]): 1700 nM | AUC(0-t) at 24 h [10]: 932 ng·h/mL | logD [11]: -0.1 | Papp [12]: 1.4 ×10⁻⁶ cm/s | Cmax [13]: 6350 ng/mL | uptake ratio (OATP1B1): 4.1 | uptake ratio (OATP1B3): 2.3 | Papp [14]: 1.3 ×10⁻⁶ cm/s | Drug uptake [1]: 22 µL/min/mg | Cmax [15]: 12.8 ng/mL | half-life [16]: 42 min | Drug uptake [2]: 12 µL/min/mg | CLint scaled [17]: < 8 mL/min/kg | Vd [18]: 0.8 L/kg | bioavailability [19]: < 1% | Papp [20]: 0.5 ×10⁻⁶ cm/s | AUC(0-t) at 24 h [21]: 36.6 ng·h/mL | Cmax [22]: 2.5 ng/mL | Activity (Rattus norvegicus [23]): 15.4% | Ratio AUC (Rattus norvegicus [24]): 3.5 | Drug uptake [3]: 55% | Cmax [25]: 1400 ng/mL | clearance [26]: 96 mL/min/kg | half-life [27]: 12 min | bioavailability [28]: < 5% | Vd [29]: 0.4 L/kg | EC50 (Hexokinase-4 [30]): 201 nM | Papp [31]: 2 ×10⁻⁶ cm/s | EC50 (Hexokinase-4 [32]): 174000 nM

O=C(O)c1ccc(NC(=O)[C@H](CC2CCCCC2)n2cnc(S(=O)(=O)C3CC3)c2)nc1
logD [11]: -0.25 | Papp [20]: 0.5 ×10⁻⁶ cm/s | fold change (FC) [33]: 0.08 | fold change (FC) [34]: 1.5 | EC50 (Hexokinase-4 [30]): 113 nM

O=C(O)c1ccc(NC(=O)[C@H](CC2CCOCC2)n2cnc(S(=O)(=O)C3CCC3)c2)nc1
logD [11]: -1.55 | Papp [20]: 0.9 ×10⁻⁶ cm/s | EC50 (Hexokinase-4 [30]): > 10000 nM

O=C(O)c1ccc(NC(=O)[C@H](CC2CCCCC2)n2cnc(S(=O)(=O)C3CCC3)c2)nc1
solubility kinetic [6]: 198 µM (≈ 91.2 µg/mL) | logD [11]: 0.15 | Papp [20]: 0.3 ×10⁻⁶ cm/s | fold change (FC) [33]: 0.08 | fold change (FC) [34]: 1.25 | EC50 (Hexokinase-4 [30]): 227 nM
